As a reminder, the IC50 is the concentration needed to halve the response being measured.

From ChEMBL document CHEMBL1914292, “Synthesis and in vitro cytotoxic activity of novel pyrazolo[3,4-d]pyrimidines and related pyrazole hydrazones toward breast adenocarcinoma MCF-7 cell line” (Bioorg Med Chem, 2011) come the findings set out here.

One assay deals with MCF7. As to the kind of experiment: Induction of oxidative stress in human MCF7 cells assessed as superoxide dismutase activity per mg of protein at 1/10 of IC50 after 24 hrs (reference value: 40.3 +/- 4.75 U).
Conditions: not given
The assay is classed as functional.
For the compound `Cc1nc2c(cnn2-c2ccc(Cl)cc2)c(=O)n1/N=C/c1ccccc1`, the Activity worked out at 95.25 U.
As to `COc1ccc(/C=N/n2c(C)nc3c(cnn3-c3ccc(Cl)cc3)c2=O)cc1`, the Activity worked out at 50 U.
`COc1cc(/C=N/n2c(C)nc3c(cnn3-c3ccc(Cl)cc3)c2=O)ccc1O`: the Activity was 100.3 U.
Regarding `COc1cc(/C=N/n2c(C)nc3c(cnn3-c3ccc(Cl)cc3)c2=O)cc(OC)c1OC`, the Activity worked out at 110 U.
For `COc1cc(/C=N/n2c(C)nc3c(cnn3S(=O)(=O)c3ccc(Cl)cc3)c2=O)cc(OC)c1OC`, the Activity came to 80 U.
For the compound `COc1cc(/C=N/NC(=O)c2cn[nH]c2NC(C)=O)cc(OC)c1OC`, the Activity came out at 75.44 U.

Another assay deals with MCF7. The assay is described as follows: Induction of oxidative stress in human MCF7 cells assessed as hydrogen peroxide level per mg of protein at 1/10 of IC50 after 24 hrs (reference value: 15.7 +/- 1.6 nmol). The assay is classed as functional.
Conditions: not given
As for `Cc1nc2c(cnn2-c2ccc(Cl)cc2)c(=O)n1/N=C/c1ccccc1`, the Activity came to 30 nmol.
On to `COc1ccc(/C=N/n2c(C)nc3c(cnn3-c3ccc(Cl)cc3)c2=O)cc1`, for which the Activity came out at 24.8 nmol.
On the same count and under the same terms, the result for `COc1cc(/C=N/n2c(C)nc3c(cnn3-c3ccc(Cl)cc3)c2=O)ccc1O` reads 39.4 nmol.
For `COc1cc(/C=N/n2c(C)nc3c(cnn3-c3ccc(Cl)cc3)c2=O)cc(OC)c1OC`, the Activity came out at 53.3 nmol.
With `COc1cc(/C=N/n2c(C)nc3c(cnn3S(=O)(=O)c3ccc(Cl)cc3)c2=O)cc(OC)c1OC`, the Activity was 27.8 nmol.
Same read-out and setting: the result for `COc1cc(/C=N/NC(=O)c2cn[nH]c2NC(C)=O)cc(OC)c1OC` reads 25.6 nmol.

Another assay concerns MCF7. The assay is described as follows: Cytotoxicity against human MCF7 cells assessed as DNA level per 10 '6 cells at 1/10 of IC50 after 24 hrs (reference value: 8.5 +/- 0.8 ug).
Conditions: not given
The assay is classed as functional.
In the case of `Cc1nc2c(cnn2-c2ccc(Cl)cc2)c(=O)n1/N=C/c1ccccc1`, the Activity came out at 5.11 µg.
For `COc1ccc(/C=N/n2c(C)nc3c(cnn3-c3ccc(Cl)cc3)c2=O)cc1`, the Activity was 7 µg.
For `COc1cc(/C=N/n2c(C)nc3c(cnn3-c3ccc(Cl)cc3)c2=O)ccc1O`, the Activity was 4.5 µg.
For `COc1cc(/C=N/n2c(C)nc3c(cnn3-c3ccc(Cl)cc3)c2=O)cc(OC)c1OC`, the Activity was 3 µg.
Turning to `COc1cc(/C=N/n2c(C)nc3c(cnn3S(=O)(=O)c3ccc(Cl)cc3)c2=O)cc(OC)c1OC`, the Activity is 5.3 µg.
Same read-out and setting: with `COc1cc(/C=N/NC(=O)c2cn[nH]c2NC(C)=O)cc(OC)c1OC` the figure was 6.1 µg.

The test system of another assay is MCF7. The assay is described as follows: Cytotoxicity against human MCF7 cells assessed as RNA level per 10 '6 cells at 1/10 of IC50 after 24 hrs (reference value: 15.3 +/- 1.6 ug). The assay is classed as functional.
Conditions: not given
In the case of `Cc1nc2c(cnn2-c2ccc(Cl)cc2)c(=O)n1/N=C/c1ccccc1`, the Activity was found to be 5 µg.
Still for that read-out and setting: the result for `COc1ccc(/C=N/n2c(C)nc3c(cnn3-c3ccc(Cl)cc3)c2=O)cc1` reads 12 µg; that for `COc1cc(/C=N/n2c(C)nc3c(cnn3-c3ccc(Cl)cc3)c2=O)ccc1O`, 3.2 µg.
Regarding `COc1cc(/C=N/n2c(C)nc3c(cnn3-c3ccc(Cl)cc3)c2=O)cc(OC)c1OC`, the Activity came to 2.6 µg.
Regarding `COc1cc(/C=N/n2c(C)nc3c(cnn3S(=O)(=O)c3ccc(Cl)cc3)c2=O)cc(OC)c1OC`, the Activity is 7.22 µg.
Take `COc1cc(/C=N/NC(=O)c2cn[nH]c2NC(C)=O)cc(OC)c1OC`: the Activity turned out to be 8.8 µg.

The subject of a further assay is MCF7. The assay is described as follows: Induction of oxidative stress in human MCF7 cells assessed as catalase activity per mg of protein at 1/10 of IC50 after 24 hrs (reference value: 7.6 +/- 0.7 U). The assay is classed as functional.
Conditions: not given
For the compound `Cc1nc2c(cnn2-c2ccc(Cl)cc2)c(=O)n1/N=C/c1ccccc1`, the Activity came out at 3.82 U.
As to `COc1ccc(/C=N/n2c(C)nc3c(cnn3-c3ccc(Cl)cc3)c2=O)cc1`, the Activity is reported as 7.4 U.
Consider `COc1cc(/C=N/n2c(C)nc3c(cnn3-c3ccc(Cl)cc3)c2=O)ccc1O`, for which the Activity turned out to be 3.5 U.
For `COc1cc(/C=N/n2c(C)nc3c(cnn3-c3ccc(Cl)cc3)c2=O)cc(OC)c1OC`, the Activity is 2.2 U.
As to `COc1cc(/C=N/n2c(C)nc3c(cnn3S(=O)(=O)c3ccc(Cl)cc3)c2=O)cc(OC)c1OC`, the Activity is recorded as 4.3 U.
As to `COc1cc(/C=N/NC(=O)c2cn[nH]c2NC(C)=O)cc(OC)c1OC`, the Activity stood at 5.85 U.

The next assay concerns MCF7. As to the kind of experiment: Cytotoxicity against human MCF7 cells assessed as protein level per 10 '6 cells at 1/10 of IC50 after 24 hrs (reference value: 110.5 +/- 12.3 ug). The assay is classed as functional.
Conditions: not given
Turning to `Cc1nc2c(cnn2-c2ccc(Cl)cc2)c(=O)n1/N=C/c1ccccc1`, the Activity was 55.4 µg.
Regarding `COc1ccc(/C=N/n2c(C)nc3c(cnn3-c3ccc(Cl)cc3)c2=O)cc1`, the Activity turned out to be 80.2 µg.
For `COc1cc(/C=N/n2c(C)nc3c(cnn3-c3ccc(Cl)cc3)c2=O)ccc1O`, the Activity was 42.6 µg.
In the case of `COc1cc(/C=N/n2c(C)nc3c(cnn3-c3ccc(Cl)cc3)c2=O)cc(OC)c1OC`, the Activity was found to be 27.5 µg.
With `COc1cc(/C=N/n2c(C)nc3c(cnn3S(=O)(=O)c3ccc(Cl)cc3)c2=O)cc(OC)c1OC`, the Activity was 78.3 µg.
On to `COc1cc(/C=N/NC(=O)c2cn[nH]c2NC(C)=O)cc(OC)c1OC`, for which the Activity was found to be 85.8 µg.

The test system of a further assay is MCF7. As to the kind of experiment: Cytotoxicity against human MCF7 cells assessed as nitric oxide level per mg protein at 1/10 of IC50 after 24 hrs (reference value: 1.9 +/- 0.16 umol). The assay is classed as functional.
Conditions: not given
For `Cc1nc2c(cnn2-c2ccc(Cl)cc2)c(=O)n1/N=C/c1ccccc1`, the Activity was found to be 3 µmol.
For the compound `COc1ccc(/C=N/n2c(C)nc3c(cnn3-c3ccc(Cl)cc3)c2=O)cc1`, the Activity worked out at 2.9 µmol.
For `COc1cc(/C=N/n2c(C)nc3c(cnn3-c3ccc(Cl)cc3)c2=O)ccc1O`, the Activity came out at 3.6 µmol.
Regarding `COc1cc(/C=N/n2c(C)nc3c(cnn3-c3ccc(Cl)cc3)c2=O)cc(OC)c1OC`, the Activity was determined as 4.4 µmol.
As for `COc1cc(/C=N/n2c(C)nc3c(cnn3S(=O)(=O)c3ccc(Cl)cc3)c2=O)cc(OC)c1OC`, the Activity was found to be 2.8 µmol.
As to `COc1cc(/C=N/NC(=O)c2cn[nH]c2NC(C)=O)cc(OC)c1OC`, the Activity amounted to 3 µmol.

Another assay has as its system MCF7. The assay is described as follows: Induction of oxidative stress in human MCF7 cells assessed as GSH level per mg of protein at 1/10 of IC50 after 24 hrs (reference value: 40 +/- 5 nmol).
Conditions: not given
The assay is classed as functional.
In the case of `Cc1nc2c(cnn2-c2ccc(Cl)cc2)c(=O)n1/N=C/c1ccccc1`, the Activity turned out to be 30.4 nmol.
Regarding `COc1ccc(/C=N/n2c(C)nc3c(cnn3-c3ccc(Cl)cc3)c2=O)cc1`, the Activity came to 36.3 nmol.
On to `COc1cc(/C=N/n2c(C)nc3c(cnn3-c3ccc(Cl)cc3)c2=O)ccc1O`, for which the Activity turned out to be 23.5 nmol.
For `COc1cc(/C=N/n2c(C)nc3c(cnn3-c3ccc(Cl)cc3)c2=O)cc(OC)c1OC`, the Activity is reported as 17.8 nmol.
With `COc1cc(/C=N/n2c(C)nc3c(cnn3S(=O)(=O)c3ccc(Cl)cc3)c2=O)cc(OC)c1OC`, the Activity is reported as 34.2 nmol.
On to `COc1cc(/C=N/NC(=O)c2cn[nH]c2NC(C)=O)cc(OC)c1OC`, for which the Activity came to 30.11 nmol.

A further assay relates to MCF7. The assay is described as follows: Cytotoxicity against human MCF7 cells after 48 hrs by SRB colorimetric assay. The assay is classed as functional, cell-based. The conditions noted are these: MCF7, 48 h. In general terms: Sulforhodamine B stains cellular protein and so reports cell mass.
In turn, `COc1ccc(/C=N/NC(=O)c2cn[nH]c2NC(C)=O)cc1` had an IC50 of 61.7 µM.
Take `Cc1nc2c(cnn2-c2ccccc2)c(=O)n1-c1cnc2ccccc2c1`: the midpoint of inhibition, the IC50, lay at 1.53 µM.
Take `Cc1nc2c(cnn2-c2ccc(Cl)cc2)c(=O)n1/N=C/c1ccccc1`: the midpoint of inhibition, the IC50, lay at 23.1 µM.
In turn, `COc1ccc(/C=N/n2c(C)nc3c(cnn3-c3ccc(Cl)cc3)c2=O)cc1` showed an IC50 of 38.6 µM.
Take `COc1cc(/C=N/n2c(C)nc3c(cnn3-c3ccc(Cl)cc3)c2=O)ccc1O`: the midpoint of inhibition, the IC50, lay at 19.8 µM.
`COc1ccc(/C=N/n2c(C)nc3c(cnn3-c3ccc(Cl)cc3)c2=O)cc1OC` came in with an IC50 of 25 µM.
In turn, `COc1cc(/C=N/n2c(C)nc3c(cnn3-c3ccc(Cl)cc3)c2=O)cc(OC)c1OC` showed an IC50 of 7.6 µM.
The same measure, in the same setting: the result for `Cc1nc2c(cnn2S(=O)(=O)c2ccc(Cl)cc2)c(=O)n1/N=C/c1ccccc1` reads 22.4 µM; that for `COc1ccc(/C=N/n2c(C)nc3c(cnn3S(=O)(=O)c3ccc(Cl)cc3)c2=O)cc1`, 41.9 µM; that for `COc1ccc(/C=N/n2c(C)nc3c(cnn3S(=O)(=O)c3ccc(Cl)cc3)c2=O)cc1OC`, 33.6 µM.
Regarding `COc1cc(/C=N/n2c(C)nc3c(cnn3S(=O)(=O)c3ccc(Cl)cc3)c2=O)cc(OC)c1OC`, the IC50 is 27.8 µM. This IC50 and that of the compound before are within 1.5-fold of each other.
On to `COc1cc(C(=O)Nn2c(C)nc3c(cnn3S(=O)(=O)c3ccc(Cl)cc3)c2=O)cc(OC)c1OC`, for which the half-maximal inhibitory concentration (IC50) amounted to 35.8 µM.
As for `CC(=O)Nc1[nH]ncc1C(=O)N/N=C/c1ccccc1`, the IC50 turned out to be 42 µM.
For `COc1ccc(/C=N/NC(=O)c2cn[nH]c2NC(C)=O)cc1OC`, the IC50 was 37.1 µM.
Compound `COc1cc(/C=N/NC(=O)c2cn[nH]c2NC(C)=O)cc(OC)c1OC` showed an IC50 of 32.1 µM.

The test system of the next assay is MCF7. As to the kind of experiment: Induction of oxidative stress in human MCF7 cells assessed as glutathione peroxidase activity per mg of protein at 1/10 of IC50 after 24 hrs (reference value: 9.3 +/- 1 U). The assay is classed as functional.
Conditions: not given
For the compound `Cc1nc2c(cnn2-c2ccc(Cl)cc2)c(=O)n1/N=C/c1ccccc1`, the Activity is 6 U.
Same read-out and setting: the result for `COc1ccc(/C=N/n2c(C)nc3c(cnn3-c3ccc(Cl)cc3)c2=O)cc1` reads 8 U.
Turning to `COc1cc(/C=N/n2c(C)nc3c(cnn3-c3ccc(Cl)cc3)c2=O)ccc1O`, the Activity is recorded as 5.4 U.
The same measure, in the same setting: with `COc1cc(/C=N/n2c(C)nc3c(cnn3-c3ccc(Cl)cc3)c2=O)cc(OC)c1OC` the figure was 4.85 U; with `COc1cc(/C=N/n2c(C)nc3c(cnn3S(=O)(=O)c3ccc(Cl)cc3)c2=O)cc(OC)c1OC`, 6.8 U.
`COc1cc(/C=N/NC(=O)c2cn[nH]c2NC(C)=O)cc(OC)c1OC`: the Activity is 7.33 U.
